These results are taken from patent US20250320206A1, “STAT6 DEGRADERS” (Gilead Sciences, Inc., priority 2024, published 2025).

The first test has as its target T1, STAT6 (Homo sapiens, UniProt P42226).
T1 construct: These cells express endogenous STAT6; host or cells: HeLa LgBiT clone 4.14
T1 sequence (P42226 1-847): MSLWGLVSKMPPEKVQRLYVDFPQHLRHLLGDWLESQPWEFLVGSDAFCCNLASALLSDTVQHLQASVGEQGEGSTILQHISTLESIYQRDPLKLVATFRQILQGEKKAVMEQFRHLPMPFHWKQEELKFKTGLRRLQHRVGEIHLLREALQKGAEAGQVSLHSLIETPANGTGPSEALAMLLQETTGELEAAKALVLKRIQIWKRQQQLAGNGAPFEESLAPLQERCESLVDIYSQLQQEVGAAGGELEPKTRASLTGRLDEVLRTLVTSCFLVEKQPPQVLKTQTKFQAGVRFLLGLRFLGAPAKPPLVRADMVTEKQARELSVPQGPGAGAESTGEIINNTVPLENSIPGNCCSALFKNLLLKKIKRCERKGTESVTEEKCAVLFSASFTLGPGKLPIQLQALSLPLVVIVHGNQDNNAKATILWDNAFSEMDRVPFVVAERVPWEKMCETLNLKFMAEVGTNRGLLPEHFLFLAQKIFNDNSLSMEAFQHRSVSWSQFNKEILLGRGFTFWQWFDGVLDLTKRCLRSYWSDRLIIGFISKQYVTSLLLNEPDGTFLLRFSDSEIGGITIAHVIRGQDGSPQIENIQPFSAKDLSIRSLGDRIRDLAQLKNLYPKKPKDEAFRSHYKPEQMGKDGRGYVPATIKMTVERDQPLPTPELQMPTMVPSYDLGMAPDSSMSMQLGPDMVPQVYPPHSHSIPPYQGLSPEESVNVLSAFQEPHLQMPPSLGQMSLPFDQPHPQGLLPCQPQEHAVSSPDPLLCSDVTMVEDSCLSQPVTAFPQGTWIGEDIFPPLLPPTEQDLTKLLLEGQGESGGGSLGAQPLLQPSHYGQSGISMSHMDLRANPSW
In words: Stat6 Degrader Assay (HiBiT based, HeLa LgBiT clone 4.14). The test is classed as cell-based. As to conditions: HeLa LgBiT clone 4.14 HiBiT-STAT6, 4-24 h incubation; read-out: STAT6 degradation Emax. How it is done:
This was a HiBit based assay. A HeLa cell line stably transfected with a small protein, LgBit (Large Bit) was obtained from Promega. These cells express endogenous STAT6. A small 11 amino acid gene sequence (HiBiT) was inserted in the STAT6 gene using CRISPR technology. Once STAT6 protein is expressed in the cells, the HiBiT sequence will bind the LgBit in the cells resulting in a functional NanoBiT protein, giving a luminescent tag to STAT6, see FIG. 2.
Single cell clones were prepared and the clone 4.14 was selected for the assay based on that clone showing high luminescence, high STAT6 phosphorylation upon stimulation with IL-4, and inhibition of luminescence when cells were treated with STAT6 siRNA.
HeLa LgBiT clone 4.14 cells were suspended in DMEM with 10% FCS, 1% Pen/Strep, Na-pyrovate and Hygromycin B, at a concentration of 1.25*105 cells pr mL. 5000 cells were added pr well of a 384 well plate and 20 nL of compound was added by Echo® liquid handler. NN6394A (terfenadine, a toxic compound) was added to control wells at 50 μM concentration to establish the assay window. In these wells the cells are dead which equals 100% degradation of STAT6.
After 4-24 h of incubation at 37° C. under 5% CO2/95% air, 5 μL substrate (Nano-GLO®) was added to the wells and the plates were centrifuged and incubated for 0.5 h.
The luminescence in the wells as a measure of non-degraded STAT6 was measured in a plate reader (BMG Pherastar FSX).
The dose-response curves for Examples 3u208, 3u246, 3u118, 3u119, 3u120, and 3u74 are shown in FIG. 1 (where percent degradation is plotted vs. test compound concentration in M on a log-scale).
In general terms: HiBiT is a short tag that completes a luciferase, so light tracks the accessible tagged protein.
As usually defined, the Emax is the maximal effect, on the per cent scale that the assay sets. In the case of `CNc1ccn(-c2ccnc3c2cc(CN2CCC(c4c(F)cc(C(=O)N5CCC(CN6CCN(c7ccc8c(c7)C7(CC7)C(=O)N8[C@H]7CCC(=O)NC7=O)CC6)CC5)cc4F)CC2)n3C)c(=O)c1` (single isomer, unassigned) [Example 3u151], the Emax lay within 30 to 40%.

Still in this test, the particulars now being: HeLa LgBiT clone 4.14 HiBiT-STAT6, 4-24 h incubation; values given for compounds with >80% Emax; geometric mean; read-out: STAT6 degradation DC50.
Broadly, the DC50 is the concentration giving 50% degradation. Consider `CNc1ccn(-c2ccnc3c2cc(CN2CC=C(c4c(F)cc(C(=O)N5CCC(CN6CCN(Cc7ccc8c(c7)n(C)c(=O)n8[C@H]7CCC(=O)NC7=O)C[C@@H]6C)CC5)cc4F)CC2)n3C)c(=O)c1` (single isomer, unassigned) [Example 3u2], for which the DC50 is 4.3 nM.

With `CNc1ccn(-c2ccnc3c2cc(CN2CC=C(c4c(F)cc(C(=O)N5CCC(CN6CCN(Cc7ccc8c(c7)n(C)c(=O)n8[C@@H]7CCC(=O)NC7=O)C[C@@H]6C)CC5)cc4F)CC2)n3C)c(=O)c1` (single isomer, unassigned) [Example 3u3], the DC50 was determined as 1.8 nM.

Turning to `CNc1ccn(-c2ccnc3c2cc([C@H](C)N2CCC(c4ccc(C(=O)N5CCC(CN6CCN(Cc7ccc8c(c7)C7(CC7)C(=O)N8[C@@H]7CCC(=O)NC7=O)C[C@@H]6C)CC5)cc4)CC2)n3C)c(=O)c1` (single isomer, unassigned) [Example 3u7], the DC50 turned out to be 0.6 nM.

For the compound `Cc1cc(C(=O)N2CCC(CN3CCN(Cc4ccc5c(c4)n(C)c(=O)n5[C@H]4CCC(=O)NC4=O)C[C@@H]3C)CC2)cc(F)c1C1=CCN(Cc2cc3c(-n4ccc5c(c4=O)CCN5)ccnc3n2C)CC1` (single isomer, unassigned) [Example 3u24], the DC50 is 1.2 nM.

`CNc1ccn(-c2ccnc3c2cc([C@H](C)N2CC=C(c4c(C)cc(C(=O)N5CCC(CN6CCN(Cc7ccc8c(c7)n(C)c(=O)n8[C@@H]7CCC(=O)NC7=O)C[C@@H]6C)CC5)cc4F)CC2)n3C)c(=O)c1` (single isomer, unassigned) [Example 3u34]: the DC50 was found to be 0.3 nM.

For `Cc1cc(C(=O)N2CCC(CN3CCN(Cc4ccc5c(c4)n(C)c(=O)n5[C@@H]4CCC(=O)NC4=O)C[C@@H]3C)CC2)cc(F)c1C1CCN(Cc2cc3c(-n4ccc5c(c4=O)CCN5)ccnc3n2C)CC1` (single isomer, unassigned) [Example 3u40], the DC50 was 2.3 nM.

Consider `Cc1cc(C(=O)N2CCC(CN3CCN(Cc4ccc5c(c4)n(C)c(=O)n5[C@H]4CCC(=O)NC4=O)C[C@@H]3C)CC2)cc(F)c1C1CCN(Cc2cc3c(-n4ccc5c(c4=O)CCN5)ccnc3n2C)CC1` (single isomer, unassigned) [Example 3u41], for which the DC50 came to 6 nM.

In the case of `CNc1ccn(-c2ccnc3c2cc([C@H](C)N2CCC(c4c(F)cc(C(=O)N5CCC(CN6CCN(Cc7ccc8c(c7)C(C)(C)C(=O)N8[C@H]7CCC(=O)NC7=O)C[C@@H]6C)CC5)cc4F)CC2)n3C)c(=O)c1` (single isomer, unassigned) [Example 3u81], the DC50 came out at 0.8 nM.

Consider `CNc1ccn(-c2ccnc3c2cc([C@H](C)N2CC=C(c4c(C)cc(C(=O)N5CCC(CN6CCN(Cc7cc8c(cc7F)n([C@H]7CCC(=O)NC7=O)c(=O)n8C7CC7)CC6)CC5)cc4F)CC2)n3C)c(=O)c1` (single isomer, unassigned) [Example 3u104], for which the DC50 was found to be 0.9 nM.

With `CNc1ccn(-c2ccnc3c2cc([C@H](C)N2CC=C(c4c(C)cc(C(=O)N5CCC(CN6CCN(Cc7cc8c(cc7F)n([C@@H]7CCC(=O)NC7=O)c(=O)n8C7CC7)CC6)CC5)cc4F)CC2)n3C)c(=O)c1` (single isomer, unassigned) [Example 3u105], the DC50 was 1.4 nM.

With `CNc1ccn(-c2ccnc3c2cc([C@H](C)N2CC=C(c4c(C)cc(C(=O)N5CCC(CN6CCN(Cc7ccc8c(c7)n(C7CC7)c(=O)n8[C@H]7CCC(=O)NC7=O)C[C@@H]6C)CC5)cc4F)CC2)n3C)c(=O)c1` (single isomer, unassigned) [Example 3u112], the DC50 amounted to 0.5 nM.

For the compound `CNc1ccn(-c2ccnc3c2cc([C@H](C)N2CC=C(c4c(C)cc(C(=O)N5CCC(CN6CCN(Cc7ccc8c(c7)n(C7CC7)c(=O)n8[C@@H]7CCC(=O)NC7=O)C[C@@H]6C)CC5)cc4F)CC2)n3C)c(=O)c1` (single isomer, unassigned) [Example 3u113], the DC50 stood at 0.6 nM.

In the case of `CNc1ccn(-c2ccnc3c2cc([C@H](C)N2CC=C(c4c(C)cc(C(=O)N5CCC(CN6CCN(Cc7ccc8c(c7)n(C7CC7)c(=O)n8[C@H]7CCC(=O)NC7=O)CC6)CC5)cc4F)CC2)n3C)c(=O)c1` (single isomer, unassigned) [Example 3u123], the DC50 was 0.9 nM.

Regarding `Cc1cc(C(=O)N2CCC(CN3CCN(Cc4cc5c(cc4F)n([C@H]4CCC(=O)NC4=O)c(=O)n5C4CC4)C[C@@H]3C)CC2)cc(F)c1C1=CCN([C@@H](C)c2cc3c(-n4ccc5c(c4=O)CCN5)ccnc3n2C)CC1` (single isomer, unassigned) [Example 3u132], the DC50 worked out at 0.5 nM.

Turning to `Cc1cc(C(=O)N2CCC(CN3CCN(Cc4cc5c(cc4F)n([C@@H]4CCC(=O)NC4=O)c(=O)n5C4CC4)C[C@@H]3C)CC2)cc(F)c1C1=CCN([C@@H](C)c2cc3c(-n4ccc5c(c4=O)CCN5)ccnc3n2C)CC1` (single isomer, unassigned) [Example 3u133], the DC50 turned out to be 0.8 nM.

On to `Cc1cc(C(=O)N2CCC(CN3CCN(Cc4ccc5c(c4)n(C)c(=O)n5[C@@H]4CCC(=O)NC4=O)C[C@@H]3C)CC2)cc(F)c1C1=CCN([C@@H](C)c2cc3c(-n4ccc5c(c4=O)CCN5)ccnc3n2C)CC1` (single isomer, unassigned) [Example 3u139], for which the DC50 is 0.2 nM.

As to `Cc1cc(C(=O)N2CCC(CN3CCN(Cc4ccc5c(c4)n(C4CC4)c(=O)n5[C@H]4CCC(=O)NC4=O)CC3)CC2)cc(F)c1C1=CCN([C@@H](C)c2cc3c(-n4ccc5c(c4=O)CCN5)ccnc3n2C)CC1` (single isomer, unassigned) [Example 3u142], the DC50 was 2.4 nM.

On to `Cc1cc(C(=O)N2CCC(CN3CCN(Cc4ccc5c(c4)n(C4CC4)c(=O)n5[C@@H]4CCC(=O)NC4=O)C[C@@H]3C)CC2)cc(F)c1C1=CCN([C@@H](C)c2cc3c(-n4ccc5c(c4=O)CCN5)ccnc3n2C)CC1` (single isomer, unassigned) [Example 3u144], for which the DC50 was 0.4 nM.

Regarding `Cc1cc(C(=O)N2CCC(CN3CCN(Cc4ccc5c(c4)n(C4CC4)c(=O)n5[C@H]4CCC(=O)NC4=O)C[C@@H]3C)CC2)cc(F)c1C1=CCN([C@@H](C)c2cc3c(-n4ccc5c(c4=O)CCN5)ccnc3n2C)CC1` (single isomer, unassigned) [Example 3u145], the DC50 was determined as 2 nM.

As to `Cc1cc(C(=O)N2CCC(CN3CCN(Cc4cc5c(cc4F)n([C@H]4CCC(=O)NC4=O)c(=O)n5C4CC4)CC3)CC2)cc(F)c1C1=CCN([C@@H](C)c2cc3c(-n4ccc5c(c4=O)CCN5)ccnc3n2C)CC1` (single isomer, unassigned) [Example 3u147], the DC50 is 1.6 nM.

For `Cc1cc(C(=O)N2CCC(CN3CCN(Cc4cc5c(cc4F)n([C@@H]4CCC(=O)NC4=O)c(=O)n5C4CC4)CC3)CC2)cc(F)c1C1=CCN([C@@H](C)c2cc3c(-n4ccc5c(c4=O)CCN5)ccnc3n2C)CC1` (single isomer, unassigned) [Example 3u148], the DC50 amounted to 2.7 nM.

Take `CNc1ccn(-c2ccnc3c2cc([C@H](C)N2CC=C(c4c(C)cc(C(=O)N5CCC(CN6CCN(Cc7ccc8c(c7)n(C)c(=O)n8[C@H]7CCC(=O)NC7=O)CC6)CC5)cc4F)CC2)n3C)c(=O)c1` (single isomer, unassigned) [Example 3u156]: the DC50 turned out to be 0.6 nM.

Regarding `CNc1ccn(-c2cccc3c2cc([C@H](C)N2CC=C(c4c(C)cc(C(=O)N5CCC(CN6CCN(Cc7cc8c(cc7F)n([C@H]7CCC(=O)NC7=O)c(=O)n8C7CC7)C[C@@H]6C)CC5)cc4F)CC2)n3C)c(=O)c1` (single isomer, unassigned) [Example 3u167], the DC50 turned out to be 0.8 nM.
